Tests used:
KCC2 mRNA [1] = assay: KCC2 mRNA RT-qPCR in rat primary cortical neurons; type: cell-based; settings: rat primary cortical neurons; dose-dependent, FIG. 10
Protocol: Total RNA was isolated from cultured cell samples using Directzol RNA miniprep kit (ZymoResearch). The protocol includes DNAse digestion to exclude genomic DNA from preparations. Total RNA (1 μg) was reverse transcribed using oligo primers (dT) and SuperScriptIII first-strand synthesis kit (Invitrogen). Gene expression was assessed by quantitative real-time PCR using 2×SYBR Green Master Mix (Qiagen) and a three-step cycling protocol (anneal at 60° C./elongate at 72° C., denature at 95° C.). Specificity of primers was verified by dissociation/melting curve for the amplicons when using SYBR Green as a detector. All reactions were performed in triplicates. The amount of target messenger RNA (mRNA) in the experimental group relative to that in the control was determined from the resulting fluorescence and threshold values (Ct) using the ΔΔCt method. βIII-tubulin was used as housekeeping gene. oligodT-initiated reverse transcription of 1 μg total RNA, DNA-se treated, was subjected to RT-qPCR using primers specific for KCC2 for rat and KCC2 for human sequences, normalized for neuronal βIII-tubulin, as previously described (Yeo et al., 2009, J Neurosci 29:14652-14662). For cultured neurons, total RNA was extracted from pelleted cells, and for spinal cord tissue it was extracted from microdissected lumbar spinal cord dorsal horn.

KCC2 mRNA [2] = assay: KCC2 mRNA in differentiated N2a cells transfected with δ-cat constructs; type: cell-based, mouse; settings: δ-cat construct vs control transfection
From the text: (§1) Plasmid containing human δ-catenin (CTNND2, NM_001288717) open reading frame was obtained from GeneCopeia (EX-A4285-M02) and cloned into pCMV-ENTER vector (Origene PS100001). Site-directed mutagenesis using Phusion DNA Polymerase enzyme (Thermofisher F549L) in conjunction with complementary primers bearing the specific mutation were used to generate the S276A […] mutation S276A. PCR was followed by Dpn1 enzyme digestion to remove parental plasmid DNA. All constructs were verified by sequencing. pCS-CMV-tdTomato plasmid was obtained from Addgene (cat. #30530).
Total RNA was isolated from cultured cell samples using Directzol RNA miniprep kit (ZymoResearch). The protocol includes DNAse digestion to exclude genomic DNA from preparations. […] Gene expression was assessed by quantitative real-time PCR using 2×SYBR Green Master Mix (Qiagen) and a three-step cycling protocol (anneal at 60° C./elongate at 72° C., denature at 95° C.). […] The amount of target messenger RNA (mRNA) in the experimental group relative to that in the control was determined from the resulting fluorescence and threshold values (Ct) using the ΔΔCt method. βIII-tubulin was used as housekeeping gene.
Next, the question of whether δ-cat, when expressed as a spinal transgene in sensory relay neurons, will facilitate analgesia in nerve constriction injury was assessed. […]

δ-cat = assay: Nuclear transfer of transfected human δ-cat in N2a cells; type: cell-based, mouse; settings: mutation vs δ-cat(WT), without KP
From the text: as §1
To investigate the relevance of δ-cat residue S276, N2a neural cells were studied because these cells transfect at higher efficiency than primary cortical neurons. In our cultures, N2a cells expressed neuronal ßIII-tubulin in elongated processes as determined by immune-labeling as an indicator of their neuronal differentiation. […] This increase in nuclear transfer was very similar to the trafficking we recorded in primary cortical neurons, thus validating the cell line. […] Of note, there was no increase of nuclear transfer of δ-cat(S276A) upon KP treatment (FIG. 8C and FIG. 8D).

nerve injury pain = assay: Nerve constriction injury (PSNL) pain model, mechanical withdrawal; type: in vivo, mouse; settings: AAV9-huSyn, 5×10^9 viral genomes i.t; vs tdTomato control; to d18
Protocol: For pain-related behavior, mechanical allodynia was assessed with von Frey filaments (Ugo Basile, Italy). The mice were placed on a 5×5-mm wire-mesh grid floor in individual compartments to avoid visual stimulation and allowed to adapt for 0.5 h prior to the von Frey test. The von Frey filament was then applied to the middle of the plantar surface of the hind paw with 5 g force. The withdrawal responses following the hind paw stimulation were measured at least three times, and the mechanical allodynia, which was defined as an increase in the number of withdrawal responses to the stimulation, was compared.
Thus, in vivo, KP functions as an analgesic when administered systemically in injury-related pain models.
Next, whether the analgesic effects of KP were mediated centrally at the spinal cord level was assessed.
Mechanical withdrawal was measured thresholds after nerve constriction injury (PSNL) (FIG. 12B and FIG. 12C). […] Thus, δ-cat(S276A) spinal transgenesis via AAV9 is sufficient to evoke analgesia after nerve constriction injury, to lesser degree also with δ-cat(WT). Importantly, δ-cat(S276A) spinal transgenesis was accompanied by increased expression of KCC2 in the SCDH. […] Moreover, our discovery points toward a genetically-encoded approach that can be developed for translation into clinical use as an alternative or complement to KP-related small molecules.

KCC2 mRNA [3] = assay: KCC2 mRNA RT-qPCR in microdissected spinal cord dorsal horn; type: in vivo, mouse; settings: AAV9 i.t; vs tdTomato control
Protocol: oligodT-initiated reverse transcription of 1 μg total RNA, DNA-se treated, was subjected to RT-qPCR using primers specific for KCC2 for rat and KCC2 for human sequences, normalized for neuronal βIII-tubulin, as previously described (Yeo et al., 2009, J Neurosci 29:14652-14662). For cultured neurons, total RNA was extracted from pelleted cells, and for spinal cord tissue it was extracted from microdissected lumbar spinal cord dorsal horn.
With the aforementioned findings and in view of the SCDH as the likely site of analgesic action of KP (Coull et al., 2003, Nature 424:938-942; Gagnon et al., 2013, Nat Med 19:1524-1528), SCDH KCC2 expression and function in nerve injury and response to KP was assessed. […] To measure KCC2 mRNA, SCDH Rexed-layers I-II were microdissected with laser capture followed by RT-qPCR. SCDH KCC2 protein expression was measured morphometrically after KCC2 immunolabeling using SCDH laminae I-II as the region-of-interest (FIG. 5B).

Row | Molecule | KCC2 mRNA expression (KCC2 mRNA [1]) | KCC2 mRNA expression (KCC2 mRNA [2]) | nuclear transfer of the transfected construct (δ-cat) | mechanical withdrawal thresholds after PSNL (nerve injury pain) | KCC2 mRNA in microdissected SCDH (KCC2 mRNA [3])
1 | O=C1[C@H](Cc2ccc(O)cc2)N2C(=O)CCN(C(=O)NCc3ccccc3)[C@H]2CN1Cc1cccc2ccccc12 [ICG-001] | significantly decreases |  |  |  | 
2 | δ-cat(S276A): human δ-catenin S276A mutant transgene (SEQ ID NO:32), as plasmid or AAV9 vector driven by human synapsin promoter |  | slightly elevated | increases nuclear transfer | Significantly less sensitization | significantly increased

— patent publication US20220281930A1, “COMPOSITIONS AND METHODS FOR THE TREATMENT OF PATHOLOGICAL PAIN AND ITCH” (DUKE UNIVERSITY, priority 2019, published 2022)
